Reference: patent publication US20240336611A1 (Insilico Medicine IP Limited, priority 2021, published 2024)

How the values were obtained:
[1] = Metabolic stability in human liver microsomes; format: in vitro ADME; settings: LM Clint (intrinsic clearance); 1 μM test compound, 0.5 mg protein/mL microsome, 37° C., up to 60 min
Method: 2.1. Test Compound and Control Working Solution Preparation: Working solution: 5 µL of compound and control stock solution (10 mM in dimethyl sulfoxide (DMSO)) were diluted with 495 μL of acetonitrile (ACN) (intermediate solution concentration: 100 μM, 99% ACN).
2.2.1. […] 2.2.2. Preparation Procedure: The appropriate amount of NADPH powder were weighed and diluted into a 10 mM MgCl2 solution (working solution concentration: 10 unit/mL; final concentration in reaction system: 1 unit/mL).
2.3.2. Preparation Procedure: The appropriate concentrations of microsome working solutions were prepared in 100 mM potassium phosphate buffer. 2.4. Stop Solution Preparation: Cold (4° C.) acetonitrile (ACN) containing 200 ng/mL tolbutamide and 200 ng/mL labetalol as internal standards (IS) were used as the stop solution.
2.5.1. Pre-warm empty ‘Incubation’ plates T60 and NCF60 for 10 min minutes. 2.5.2. Liver microsomes were diluted to 0.56 mg/mL in 100 mM phosphate buffer. 2.5.3. 445 uL microsome working solutions (0.56 mg/mL) were transferred into pre-warmed ‘Incubation’ plates T60 and NCF60. Then ‘Incubation’ plates T60 and NCF60 were pre-incubated for 10 min at 37° C. with constant shaking. 54 μL liver microsomes were transferred to blank plate, then 6 μL NAPDH cofactor were added to the blank plate, and then 180 μL quenching solution can be added to blank plate. 2.5.4 5 μL compound working solution (100 μM) were added into ‘incubation’ plates (T60 and NCF60) containing microsomes and mix 3 times thoroughly. 2.5.5. For the NCF60 plate, 50 uL of buffer were added and were mixed 3 times thoroughly. Start timing; plate was incubated at 37° C. for 60 min while shaking. 2.5.6. In ‘Quenching’ plate TO, 180 μL quenching solution were added and 6 μL NAPDH cofactor were added. Ensured the plate was chilled to prevent evaporation. 2.5.7. For the T60 plate, were mixed 3 times thoroughly, and immediately removed 54 μL mixture for the 0-min time point to ‘Quenching’ plate. Then 44 μL NAPDH cofactor were added to incubation plate (T60). Start timing; plate were incubated at 37° C. for 60 min while shaking.
2.5.8. At 5, 10, 20, 30, and 60 min, 180 μL quenching solution were added to ‘Quenching’ plates, mix once, and were serially transferred 60 μL sample from T60 plate per time point to ‘Quenching’ plates.
2.5.9. For NCF60: were mixed once, and 60 μL sample were transferred from the NCF60 incubation to ‘Quenching’ plate containing quenching solution at the 60-min time point.
2.5.10. All sampling plates were shaken for 10 min, then centrifuged at 4000 rpm for 20 minutes at 4° C. 2.5.11. 80 μL supernatant were transferred into 240 μL HPLC water, and were mixed by plate shaker for 10 min. 2.5.12. Each bioanalysis plate were sealed and shaken for 10 minutes prior to LC-MS/MS analysis.
3.1. The equation of first order kinetics were used to calculate T1/2 and Intrinsic clearance (CLint mic) in (μL/min/mg).
Equation of first order kinetic.

[2] = target: T1, TNIK kinase [amino acid sequence (1-367), Invitrogen] (Homo sapiens, UniProt Q9UKE5); assay: TNIK kinase inhibition assay (Z-lyte FRET-peptide); format: biochemical; settings: 0.625 nM TNIK kinase, 2 μM Ser/Thr 7 peptide, 64 μM ATP, one hour at room temperature
T1 construct: purchased Invitrogen
Method: Z-lyte assay kit was purchased from Invitrogen. A site-specific protease recognizes and cleaves non-phosphorylated FRET-peptides. Phosphorylation of FRET-peptides suppresses cleavage by protease and will maintain FRET from donor to acceptor.
5 μl of Development Reagent A solution was then added to cleave non-phosphorylated peptide with a dilution 1:65000 in Development Buffer B. The assay plate was incubated at room temperature for another one hour and then read in the Envision plate reader (PerkinElmer).

T1 sequence (Q9UKE5 1-367): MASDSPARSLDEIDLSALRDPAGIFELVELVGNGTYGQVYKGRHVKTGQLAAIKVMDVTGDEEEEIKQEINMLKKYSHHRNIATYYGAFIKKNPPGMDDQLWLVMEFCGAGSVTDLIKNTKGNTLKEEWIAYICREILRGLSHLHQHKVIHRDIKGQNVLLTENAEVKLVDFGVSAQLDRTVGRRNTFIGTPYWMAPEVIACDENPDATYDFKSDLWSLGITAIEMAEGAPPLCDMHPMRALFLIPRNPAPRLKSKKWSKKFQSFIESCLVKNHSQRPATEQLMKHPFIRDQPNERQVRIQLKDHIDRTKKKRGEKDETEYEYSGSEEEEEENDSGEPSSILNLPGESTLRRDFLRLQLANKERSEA

| SMILES | Human Liver Microsome (μM/min/mg) [1] | IC50 [2] [nM] |
| --- | --- | --- |
| O=C(Nc1ccc(N2CCOCC2)cn1)c1c[nH]c(-c2c(-c3ccc(F)cc3)ncn2C2COC2)n1 [Compound 72, 5′-(4-fluorophenyl)-N-(5-morpholinopyridin-2-yl)-3′-(oxetan-3-yl)-1H,3′H-[2,4′-biimidazole]-4-carboxamide] | ++ (10-100 μM/min/mg as ++) | – |
| O=C(NC1CCOCC1)c1csc(-c2c(-c3ccc(F)cc3)ncn2C2CC(F)(F)C2)n1 [Compound 77, 2-(1-(3,3-difluorocyclobutyl)-4-(4-fluorophenyl)-1H-imidazol-5-yl)-N-(tetrahydro-2H-pyran-4-yl)thiazole-4-carboxamide] | – | > 150 |
| O=C(Nc1ccc(C2COC2)cn1)c1csc(-c2c(-c3ccc(F)cc3)ncn2C2COC2)n1 [Compound 78, 2-(4-(4-fluorophenyl)-1-(oxetan-3-yl)-1H-imidazol-5-yl)-N-(5-(oxetan-3-yl)pyridin-2-yl)thiazole-4-carboxamide] | – | 1 to 12 |
| O=C(Nc1ccc(N2CCC2)cn1)c1coc(-c2c(-c3ccc(F)cc3)ncn2C2COC2)n1 [Compound 79, N-(5-(azetidin-1-yl)pyridin-2-yl)-2-(4-(4-fluorophenyl)-1-(oxetan-3-yl)-1H-imidazol-5-yl)oxazole-4-carboxamide] | – | 12 to 150 |
| O=C(Nc1ccc(C2COC2)cc1F)c1coc(-c2c(-c3ccc(F)cc3)ncn2C2COC2)n1 [Compound 80, N-(2-fluoro-4-(oxetan-3-yl)phenyl)-2-(4-(4-fluorophenyl)-1-(oxetan-3-yl)-1H-imidazol-5-yl)oxazole-4-carboxamide] | – | 12 to 150 |
| O=C(Nc1ccc(C2COC2)cn1)c1coc(-c2c(-c3ccc(F)cc3)ncn2C2COC2)n1 [Compound 82, 2-(4-(4-fluorophenyl)-1-(oxetan-3-yl)-1H-imidazol-5-yl)-N-(5-(oxetan-3-yl)pyridin-2-yl)oxazole-4-carboxamide] | – | 12 to 150 |
| CC(C)c1noc(-c2ccc(F)cc2)c1-c1nc(C(=O)Nc2ccc(C3CN(C)C3)cc2F)cs1 [Compound 87, N-(2-fluoro-4-(1-methylazetidin-3-yl)phenyl)-2-(5-(4-fluorophenyl)-3-isopropylisoxazol-4-yl)thiazole-4-carboxamide] | – | 1 to 12 |
| CC(C)c1noc(-c2ccc(F)cc2)c1-c1nc(C(=O)Nc2ccc(C3CN(C)C3)cn2)cs1 [Compound 89, 2-(5-(4-fluorophenyl)-3-isopropylisoxazol-4-yl)-N-(5-(1-methylazetidin-3-yl)pyridin-2-yl)thiazole-4-carboxamide] | – | 12 to 150 |
| CC(C)n1cnc(-c2ccc(F)cc2)c1-c1nc(C(=O)Nc2ccc(C3CN(C)C3)cc2F)co1 [Compound 101, N-(2-fluoro-4-(1-methylazetidin-3-yl)phenyl)-2-(4-(4-fluorophenyl)-1-isopropyl-1H-imidazol-5-yl)oxazole-4-carboxamide] | – | 1 to 12 |
| CN1C2CC1CN(c1ccc(NC(=O)c3coc(-c4c(-c5ccc(F)cc5)ncn4C4CC(F)(F)C4)n3)c(F)c1)C2 [Compound 103, 2-(1-(3,3-difluorocyclobutyl)-4-(4-fluorophenyl)-1H-imidazol-5-yl)-N-(2-fluoro-4-(6-methyl-3,6-diazabicyclo[3.1.1]heptan-3-yl)phenyl)oxazole-4-carboxamide] | – | 1 to 12 |
| CC(C)c1onc(-c2ccc(F)cc2)c1-c1nc(C(=O)Nc2ccc(N3CC4CC(C3)N4C)cn2)co1 [Compound 104, 2-(3-(4-fluorophenyl)-5-isopropylisoxazol-4-yl)-N-(5-(6-methyl-3,6-diazabicyclo[3.1.1]heptan-3-yl)pyridin-2-yl)oxazole-4-carboxamide] | – | 12 to 150 |

Continued, values first:

| Human Liver Microsome (μM/min/mg) [1] | IC50 [2] [nM] | SMILES |
| --- | --- | --- |
| – | 12 to 150 | CC(C)c1onc(-c2ccc(F)cc2)c1-c1nc(C(=O)Nc2ccc(N3CC4CC(C3)N4C)cc2F)co1 [Compound 105, N-(2-fluoro-4-(6-methyl-3,6-diazabicyclo[3.1.1]heptan-3-yl)phenyl)-2-(3-(4-fluorophenyl)-5-isopropylisoxazol-4-yl)oxazole-4-carboxamide] |
| – | 12 to 150 | CC(C)c1onc(-c2ccc(F)cc2)c1-c1nc(C(=O)Nc2ccc(C3CN(C)C3)cc2F)co1 [Compound 106, N-(2-fluoro-4-(1-methylazetidin-3-yl)phenyl)-2-(3-(4-fluorophenyl)-5-isopropylisoxazol-4-yl)oxazole-4-carboxamide] |
| – | 12 to 150 | CC(C)c1onc(-c2ccc(F)cc2)c1-c1nc(C(=O)Nc2ccc(C3CN(C)C3)cn2)co1 [Compound 107, 2-(3-(4-fluorophenyl)-5-isopropylisoxazol-4-yl)-N-(5-(1-methylazetidin-3-yl)pyridin-2-yl)oxazole-4-carboxamide] |
| – | 1 to 12 | [2H]C([2H])([2H])N1CC(c2ccc(NC(=O)c3csc(-c4c(-c5ccc(F)cc5)ncn4C([2H])(C)C)n3)nc2)C1 [Compound 110, 2-[3-(1-deuterio-1-methyl-ethyl)-5-(4-fluorophenyl)imidazol-4-yl]-N-[5-[1-(trideuteriomethyl)azetidin-3-yl]-2-pyridyl]thiazole-4-carboxamide] |
| – | 12 to 150 | [2H]C([2H])([2H])N1CC(c2ccc(NC(=O)c3coc(-c4c(-c5ccc(F)cc5)ncn4C([2H])(C)C)n3)nc2)C1 [Compound 111] |
| – | 12 to 150 | [2H]C([2H])([2H])N1CC(c2ccc(NC(=O)c3coc(-c4c(-c5ccc(F)cc5)ncn4C(C)C)n3)nc2)C1 [Compound 112, 2-[5-(4-fluorophenyl)-3-isopropyl-imidazol-4-yl]-N-[5-[1 (trideuteriomethyl)azetidin-3-yl]-2-pyridyl]oxazole-4-carboxamide] |
| – | 12 to 150 | [2H]C([2H])([2H])N1CC(c2ccc(NC(=O)c3c[nH]c(-c4c(-c5ccc(F)cc5)ncn4C(C)C)n3)nc2)C1 [Compound 113] |
| – | 1 to 12 | [2H]C([2H])([2H])N1CC(c2ccc(NC(=O)c3csc(-c4c(C(C)C)cnn4-c4ccc(F)cc4)n3)nc2)C1 [Compound 116, 2-(1-(4-fluorophenyl)-4-isopropyl-1H-pyrazol-5-yl)-N-(5-(1-(trideuteriomethyl)azetidin-3-yl)pyridin-2-yl)thiazole-4-carboxamide] |
| – | 12 to 150 | [2H]C([2H])([2H])N1CC(c2ccc(NC(=O)c3c[nH]c(-c4c(-c5ccc(F)cc5)ncn4C([2H])(C)C)n3)nc2)C1 [Compound 118] |
| – | 12 to 150 | [2H]C([2H])([2H])N1CC(c2ccc(NC(=O)c3c[nH]c(-c4c(-c5ccc(F)cc5)ncn4C4CCC4)n3)nc2)C1 [Compound 119, 2-[3-cyclobutyl-5-(4-fluorophenyl)imidazol-4-yl]-N-[5-[1-(trideuteriomethyl)azetidin-3-yl]-2-pyridyl]-1H-imidazole-4-carboxamide] |
| – | 1 to 12 | [2H]C([2H])([2H])N1CC(c2ccc(NC(=O)c3c[nH]c(-c4c(-c5ccc(F)cc5)ncn4C4CCC4)n3)c(F)c2)C1 [Compound 120, 2-[3-cyclobutyl-5-(4-fluorophenyl)imidazol-4-yl]-N-[2-fluoro-4-[1-(trideuteriomethyl)azetidin-3-yl]phenyl]-1H-imidazole-4-carboxamide] |
| ++ (10-100 μM/min/mg as ++) | – | [2H]C([2H])([2H])N1CC(c2ccc(NC(=O)c3nc(-c4c(-c5ccc(F)cc5)ncn4C(C)C)cs3)nc2)C1 [Compound 130, 4-[5-(4-fluorophenyl)-3-isopropyl-imidazol-4-yl]-N-[5-[1-(trideuteriomethyl)azetidin-3-yl]-2-pyridyl]thiazole-2-carboxamide] |
| – | 12 to 150 | [2H]C(C)(C)n1cnc(-c2ccc(F)cc2)c1-c1nc(C(=O)Nc2ccc(N3CCN(CC)CC3)cc2)c[nH]1 [Compound 135, 2-[3-(1-deuterio-1-methyl-ethyl)-5-(4-fluorophenyl)imidazol-4-yl]-N-[4-(4-ethylpiperazin-1-yl)phenyl]-1H-imidazole-4-carboxamide] |
